# Measurements from PubChem BioAssay (NCI).
#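 Assay format: 96-well plates, 48-hour exposure. At the GI50, growth is halved. TGI: concentration producing complete growth inhibition.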
# Key:
# Assay in all cases: NCI-60 cell line screen, 48 h
# [1] = tested on: NCI-H226 lung
# [2] = tested on: OVCAR-4 ovarian
# [3] = tested on: SNB-19 CNS
# [4] = tested on: OVCAR-5 ovarian
# [5] = tested on: MALME-3M melanoma
# [6] = tested on: HOP-62 NSCLC
# [7] = tested on: HCT-116 colon
# [8] = tested on: NCI/ADR-RES ovarian
# [9] = tested on: IGROV1 ovarian
# [10] = tested on: U251 CNS
# [11] = tested on: HCT-15 colon
# [12] = tested on: TK-10 renal
# [13] = tested on: ACHN renal
# [14] = tested on: SF-539 CNS
# [15] = tested on: LOX IMVI melanoma
# [16] = tested on: PC-3 prostate
# [17] = tested on: HL-60(TB) leukemia
# [18] = tested on: CAKI-1 renal
# [19] = tested on: K-562 leukemia
# [20] = tested on: NCI-H522 lung
# [21] = tested on: T-47D breast
# [22] = tested on: SK-MEL-5 melanoma
# [23] = tested on: BT-549 breast
# [24] = tested on: KM12 colon
# [25] = tested on: UACC-257 melanoma
# [26] = tested on: DU-145 prostate
# [27] = tested on: MOLT-4 leukemia
# [28] = tested on: CCRF-CEM leukemia
# [29] = tested on: SK-OV-3 ovarian
# [30] = tested on: HCC-2998 colon
# [31] = tested on: MCF7 breast
# [32] = tested on: A498 renal
# [33] = tested on: SF-268 CNS
# [34] = tested on: HS 578T breast
# [35] = tested on: RPMI-8226 leukemia
# [36] = tested on: UACC-62 melanoma
# [37] = tested on: OVCAR-8 ovarian
# [38] = tested on: EKVX NSCLC
# [39] = tested on: SF-295 CNS
# [40] = tested on: SK-MEL-28 melanoma
# [41] = tested on: UO-31 renal
# [42] = tested on: NCI-H460 lung
# [43] = tested on: 786-0 renal
# [44] = tested on: SW-620 colon
# [45] = tested on: HOP-92 NSCLC
# [46] = tested on: M14 melanoma
# [47] = tested on: COLO 205 colon
# [48] = tested on: SK-MEL-2 melanoma
# [49] = tested on: MDA-MB-435
# [50] = tested on: A549 NSCLC
# [51] = tested on: OVCAR-3 ovarian
# [52] = tested on: SN12C renal
# [53] = tested on: MDA-MB-231 breast
# [54] = tested on: HT29 colon
smiles,measurement,setting,value
COc1ccc2c(c1)C(=O)c1c-2c(N2CCN(C(=O)CNCCN(C)C)CC2)nc2ccccc12,GI50,[1],4.11 µM
same,TGI,[1],18 µM
same,GI50,[2],5.62 µM
same,TGI,[2],16.7 µM
same,GI50,[3],4.99 µM
same,TGI,[3],19.8 µM
same,GI50,[4],2.2 µM
same,TGI,[4],5.82 µM
same,GI50,[5],1.96 µM
same,TGI,[5],4.94 µM
same,GI50,[6],1.86 µM
same,TGI,[6],4.18 µM
same,GI50,[7],1.22 µM
same,TGI,[7],2.7 µM
same,GI50,[8],4.28 µM
same,TGI,[8],19.9 µM
same,GI50,[9],1.11 µM
same,TGI,[9],2.69 µM
same,GI50,[10],2.19 µM
same,TGI,[10],4.68 µM
same,GI50,[11],2.3 µM
same,TGI,[11],5.44 µM
same,GI50,[12],4.15 µM
same,TGI,[12],17.8 µM
same,GI50,[13],4.65 µM
same,TGI,[13],17.4 µM
same,GI50,[14],1.6 µM
same,TGI,[14],3.03 µM
same,GI50,[15],1.71 µM
same,TGI,[15],3.33 µM
same,GI50,[16],3.48 µM
same,TGI,[16],15.1 µM
same,GI50,[17],2.4 µM
same,TGI,[17],6.31 µM
same,GI50,[18],3.86 µM
same,TGI,[18],17.6 µM
same,GI50,[19],0.72 µM
same,TGI,[19],> 100 µM
same,GI50,[20],1.76 µM
same,TGI,[20],3.44 µM
same,GI50,[21],1.38 µM
same,TGI,[21],3.07 µM
same,GI50,[22],4.49 µM
same,TGI,[22],16.7 µM
same,GI50,[23],1.75 µM
same,TGI,[23],3.43 µM
same,GI50,[24],1.83 µM
same,TGI,[24],4.38 µM
same,GI50,[25],1.95 µM
same,TGI,[25],3.7 µM
same,GI50,[26],3.32 µM
same,TGI,[26],13.3 µM
same,GI50,[27],1.47 µM
same,TGI,[27],5.98 µM
same,GI50,[28],1.39 µM
same,TGI,[28],4.5 µM
same,GI50,[29],14 µM
same,TGI,[29],27.5 µM
same,GI50,[30],1.37 µM
same,TGI,[30],2.98 µM
same,GI50,[31],1.62 µM
same,TGI,[31],3.11 µM
same,GI50,[32],2.14 µM
same,TGI,[32],5 µM
same,GI50,[33],2.28 µM
same,TGI,[33],6 µM
same,GI50,[34],2.67 µM
same,TGI,[34],9.87 µM
same,GI50,[35],1.67 µM
same,TGI,[35],3.84 µM
same,GI50,[36],2.16 µM
same,TGI,[36],3.69 µM
same,GI50,[37],3.9 µM
same,TGI,[37],17.5 µM
same,GI50,[38],3.87 µM
same,TGI,[38],15.7 µM
same,GI50,[39],2.48 µM
same,TGI,[39],5.34 µM
same,GI50,[40],1.67 µM
same,TGI,[40],3.04 µM
same,GI50,[41],1.38 µM
same,TGI,[41],2.78 µM
same,GI50,[42],1.17 µM
same,TGI,[42],2.55 µM
same,GI50,[43],1.48 µM
same,TGI,[43],3.09 µM
same,GI50,[44],1.27 µM
same,TGI,[44],2.53 µM
same,GI50,[45],1.57 µM
same,TGI,[45],4.15 µM
same,GI50,[46],1.88 µM
same,TGI,[46],3.52 µM
same,GI50,[47],1.65 µM
same,TGI,[47],3.2 µM
same,GI50,[48],2.07 µM
same,TGI,[48],3.83 µM
same,GI50,[49],2.38 µM
same,TGI,[49],4.98 µM
same,GI50,[50],2.22 µM
same,TGI,[50],10.1 µM
same,GI50,[51],2.01 µM
same,TGI,[51],5.76 µM
same,GI50,[52],2.54 µM
same,TGI,[52],7.56 µM
same,GI50,[53],1.79 µM
same,TGI,[53],3.61 µM
same,GI50,[54],0.362 µM
same,TGI,[54],1.25 µM
